Where a SMILES comes first, the peptide text is derived from it. Where no end group is shown, it is not given here. The star is where a group is joined. Cbz = O=C(OCc1ccccc1)*
Columns and labels:
PDX1 [1] = assay: PDX1 protein level, degradation and ubiquitination in HEK293 cells co-transfected with MST1; assay type: cell-based, mouse
From the text: pCMV-myc-MST1 and kinase-dead (MST1-K59; dnMST1) are described in Yamamoto et al., J. Clin. Invest. 111 (2003), 1463-1474. Mouse pB.RSV.PDX1-GFP is described in Kawamori et al., Diabetes 52 (2003) 2896-2904. pcDNA3 Myr-HA Akt1, HA-Ubiquitin and pCDNA3 Jnk1a1 (apf)(dn-JNK) plasmids were obtained from Addgene (Cambridge, Mass.). Mouse PDX1 mutants (T11, T126, T152, T155, T214 and T231) in pCGIG5 vector were generated by site-directed mutagenesis as described previously (Frogne et al., 7 (2012), e35233). All mutations were verified by sequencing. To make bacterial expression plasmids for PDX1 mutants, the complete mouse PDX1 CDS (wild type and mutants) has been amplified by PCR using a specific set of primers from pCGIG5 plasmids and cloned into a pGEX-6P-1 bacterial expression vector. The rat insulin driven luciferase vector (RIP-Luc) was constructed by subcloning a 700 by fragment containing −660 bp of the rat 2 insulin promoter into a pMCS-Green-Renilla-Luc vector (Thermo Scientific). pCMV-Red firefly Luc vector was obtained from Thermo Scientific.
HEK293 cells were cultured in 10-cm cell culture dishes and transfected with HA-ubiquitin, PDX1 and MST1 expression plasmids for 48 h. For ubiquitination in human islets, 5000 islets per condition were transfected with ubiquitin plasmid. After 24 h, islets were infected with Ad-GFP or Ad-MST1 for 6 h and kept for another 48 h. […] Lysates were immunoprecipitated with PDX1-specific antibody overnight at 4° C. Immunocomplexes were then captured with Protein A Agarose by rotation at 4° C. for 4 h. After extensive washing, immunoprecipitates were boiled in sample buffer and proteins subjected to western blotting with ubiquitin-specific antibody.
HEK293 cells were transfected with PDX1 alone, or together with MST1 expressing-plasmids. Human islets were infected with Ad-GFP (control) or Ad-MST1. At 48 h after post-transfection/infection, cells were treated with 50 μg/ml translation initiation inhibitor cycloheximde (CHX) to the medium at the times indicated and the lysates were subjected to western blotting.

human islets = assay: Glucose stimulated insulin secretion (GSIS) in human islets; assay type: cell-based; settings: Ad-MST1 72 h
Description: (§1) For acute insulin release in response to glucose, primary human and mouse islets and INS1 cells were washed and pre-incubated (30 min) in Krebs-Ringer bicarbonate buffer (KRB) containing 2.8 mM glucose and 0.5% BSA. KRB was then replaced by KRB 2.8 mM glucose for 1 h (basal), followed by an additional 1 h in KRB 16.7 mM glucose. Insulin content was extracted with 0.18N HCl in 70% ethanol. Insulin was determined using human and mouse insulin ELISA (ALPCO Diagnostics, Salem, N.H.). Secreted insulin was normalized to insulin content.

PDX1 [2] = assay: Luciferase reporter assay of PDX1 transcriptional activity (rat Ins2-Luc) in HEK293 cells; assay type: cell-based; settings: HEK293, 48 h
Description: The transcriptional activity of the PDX1 at promoter level was evaluated using rat Ins2-Luc renilla reporter gene HEK293 cells were transfected with Ins2-Luc renilla, pCMV-firefly, PDX1-WT or PDX1-T11A, alone or together with Myc-MST1 expressing plasmids for 48 h. INS-1E cells transfected with Ins2-Luc renilla and pCMV-firefly plasmids and were infected with Ad-GFP or Ad-MST1 for 48 h. Luciferase activity determined using the Renilla-Firefly Luciferase Dual Assay Kit according to the manufacturer's instructions (Pierce). pCMV-firefly was used as transfection control.

INS-1E cells = assay: Glucose stimulated insulin secretion (GSIS) in INS-1E cells; assay type: cell-based, rat; settings: Ad-MST1 72 h
Description: as §1

MST1 [3] = molecular target: T1, MST1 (Homo sapiens, UniProt Q13043); assay: In vitro kinase assay, phosphorylation of PDX1 by recombinant MST1; assay type: biochemical
T1 construct: purchased Upstate Biotechnology
T1 sequence (Q13043 1-487): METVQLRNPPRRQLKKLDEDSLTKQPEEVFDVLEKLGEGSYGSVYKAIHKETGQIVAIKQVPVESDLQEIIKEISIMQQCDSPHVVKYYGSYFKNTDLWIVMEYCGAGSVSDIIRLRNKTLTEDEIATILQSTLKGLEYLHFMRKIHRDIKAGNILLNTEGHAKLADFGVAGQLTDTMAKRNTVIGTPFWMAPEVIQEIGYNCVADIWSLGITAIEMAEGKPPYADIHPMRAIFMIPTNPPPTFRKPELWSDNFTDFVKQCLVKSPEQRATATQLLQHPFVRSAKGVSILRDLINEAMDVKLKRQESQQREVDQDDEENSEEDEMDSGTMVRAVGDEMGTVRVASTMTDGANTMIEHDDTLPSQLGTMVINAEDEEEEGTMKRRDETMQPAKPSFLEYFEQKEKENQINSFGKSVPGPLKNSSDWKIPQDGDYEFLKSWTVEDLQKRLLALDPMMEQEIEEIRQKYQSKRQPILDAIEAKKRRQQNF
Description: For immunoprecipitation, cells were washed with PBS and lysed in cold buffer containing 20 mM Tris-HCl (pH 7.5), 150 mM NaCl, 0.27 M sucrose, 1 mM EDTA, 1 mM EGTA, 50 mM NaF, 1% NP-40, 5 mM sodium pyrophosphate and 10 mM β-glycerophosphate supplemented with proteinase/phosphatase inhibitors for 30 min on ice. Lysates were centrifuged at 12,000 g for 15 min at 4° C. prior to immunoprecipitation. Immunoprecipitations were carried out with incubating 0.5-1 mg of total lysate with rabbit anti-PDX1 (1:500), rabbit anti-MST1 (1:50), mouse anti-Myc (1:1000) and rabbit anti-GFP (1:1000) antibodies on a rotator at 4° C. overnight. Immunocomplexes were then captured with Protein A Agarose Fast Flow (Millipore) by rotation at 4° C. for 4 h. After five washes with cold lysis buffer, the immunoprecipitates were used for kinase assays or resuspended in sample buffer and separated by NuPAGE 4-12% Bis-Tris gels (Invitrogen).
Purified human active MST1 (Upstate Biotechnology) was incubated with ^32P-ATP (2 μCi, Perkin Elmer Life Sciences), ATP (100 μM) and 1 mM dithiothreitol (DTT) in a kinase buffer containing 40 mM HEPES (pH 7.4), 20 mM MgCl2, 1 mM EDTA and 1 μg of purified recombinant human PDX-1 (Abcam) or bacterially purified GST-PDX1 (WT and mutants) as substrates. After incubation at 30° C. for 30 min, the reaction was stopped by adding loading buffer and proteins were separated on NuPAGE gels and phosphorylation levels visualized either by autoradiography or specific antibody for phospho-PDX1. The total PDX1 was detected with anti-PDX1 antibody.
Expression and induction of recombinant GST proteins were performed as described previously (Tolia et al., Nat. Methods 3 (2006), 55-64). Escherichia coli BL21 cells with various GST-fusion expression plasmids were cultured at 37° C. and expression of recombinant proteins was induced by 0.1 mM final concentration of Isopropyl-β-D-thio-galactoside (IPTG; sigma) for 2.5 h. Cells were lysed using B-PER bacterial protein extraction reagent (Pierce) and purified using Glutathione Spin Columns (Pierce).

PDX1 target genes [4] = assay: RT-PCR of PDX1 target genes in human islets; assay type: cell-based; settings: human islets (FIG. 15 q)
From the text: (§2) Total RNA was isolated from cultured human islets and INS1 cells using TRIzol (Invitrogen), and RT-PCR performed as described previously (Shu et al., Diabetologica 55 (2012), 3296-307). For analysis, the Applied Biosystems StepOne Real-Time PCR system (Applied Biosystems, CA, USA) with TaqMan® Fast Universal PCR Master Mix for TaqMan assays (Applied Biosystems) was used. TaqMan® Gene Expression Assays were used for pdx1 (Hs00426216_m1), SLC2A2 (Hs01096905_m1), GCK (Hs01564555_m1), insulin (Hs02741908_m1), PPIA (Hs99999904_m1) and tubulin (Hs00362387_m1) for human and PDX1 (Rn00755591_m1), SLC2A2 (Rn00563565_m1), GCK (Rn00688285_m1), INS1 (Rn02121433_g1), […] (Rn01774648_g1), BCL2L11 (Hs01083836_m1), PPIA (Rn00690933_m1) and tuba1a (Rn01532518_g1) for rat.

PDX1 target genes [5] = assay: RT-PCR of PDX1 target genes in INS-1E cells; assay type: cell-based, rat; settings: INS-1E cells (FIG. 21 d)
From the text: as §2

MST1 [6] = assay: MST1 activation and AKT signalling in INS-1E cells and human islets, western blotting; assay type: cell-based, rat; settings: for glucose- and cytokine-induced P-MST1, MST1-cleavage and apoptosis: INS-1E cells, 72 h, GLP1 and insulin 100 nM
Description: Islet purity was greater than 95% as judged by dithizone staining (if this degree of purity was not achieved by routine isolation, islets were handpicked). Islets from MST1^−/− mice and their WT littermates were isolated as described previously (Schulthess et al., Cell. Metab. 9 (2009) 125-139). Pancreata were perifused with a Liberase™ (#05401119001, Roche, Mannheim, Germany) solution according to the manufacturer's instructions and digested at 37° C., followed by washing and handpicking Human islets were cultured in complete CMRL-1066 (Invitrogen) medium at 5.5 mM glucose and mouse islets and INS-1E cells at complete RPMI-1640 medium at 11.1 mM glucose and HEK293 cells were cultured in Dulbecco's modified Eagle's medium (DMEM). All media included with glutamate, 1% penicillin-streptomycin and 10% fetal bovine serum (FBS, all PAA). INS-1E medium was supplemented with 10 mM HEPES, 1 mM sodium pyruvate and 50 μM β-mercaptoethanol. Islets and INS-1E were exposed to complex diabetogenic conditions: 22.2-33.3 mM glucose, 0.5 mM palmitic acid, the mixture of 2 ng/ml recombinant human IL-1β (R&D Systems, Minneapolis, Minn.)+1,000 U/ml recombinant human IFN-γ (PeProTech) for 72 h, 100 μM H2O2 for 6 h, 1 mM streptozotocin (STZ) for 8 h or 1 mM thapsigargin for 6 h (all Sigma).
At the end of the incubation periods, islets and INS1E cells were washed in ice-cold PBS and lysed in lysis buffer containing 20 mM Tris acetate, 0.27 M sucrose, 1 mM EDTA, 1 mM EGTA, 50 mM NaF, 1% Triton X-100, 5 mM sodium pyrophosphate and 10 mM β-glycerophosphate. Prior to use, the lysis buffer was supplemented with Protease- and Phosphatase-inhibitors (Pierce, Rockford, Ill., USA). Protein concentrations were determined with the BCA protein assay (Pierce). Equivalent amounts of protein from each treatment group were run on a NuPAGE 4-12% Bis-Tris gel (Invitrogen) and electrically transferred onto PVDF membranes. […] Membrane was developed using a chemiluminescence assay system (Pierce) and analyzed using DocIT®LS image acquisition 6.6a (UVP BioImaging Systems, Upland, Calif., USA).

Compound: PDX1-T11A: mutant PDX1 with amino acid Thr11 substituted to alanine, inert to phosphorylation by MST1
- MST1-induced rapid degradation of PDX1 in the presence of CHX (PDX1 [1]; 50 μg/ml CHX): did not occur
- PDX1 levels in presence of MST1 (PDX1 [1]; HEK293 cells, 48 h): does not decrease
- PDX1 ubiquitination (PDX1 [1]; HEK293 cells, HA-ubiquitin, 48 h, MG-132 last 6 h): less
- MST1-induced impairment in GSIS (human islets): normalized
- Reduction of PDX1 transcriptional activity by MST1 (PDX1 [2]): not
- MST1-induced impairment in GSIS (INS-1E cells): normalized
- phosphorylation by recombinant MST1 of PDX1 immunoprecipitated from HEK293 cells (MST1 [3]; all PDX1 mutants transfected into HEK293): markedly decreased
- MST1-induced phosphorylation at the Thr11 site and overall Thr-phosphorylation (MST1 [3]; p-T11 and pan-Threonine antibodies, immunoprecipitated PDX1): markedly reduced
- threonine phosphorylation of PDX1-GST fusion proteins by MST1 (MST1 [3]; proteins purified from bacteria, pan-phospho threonine antibody): exception
- MST1-induced down regulation of PDX1 target genes (PDX1 target genes [4]): restored
- MST1-induced down regulation of PDX1 target genes (PDX1 target genes [5]): restored

Compound: z-DEVD-fmk
- stress-induced MST1 cleavage by diabetic stimuli (MST1 [6]; human islets and INS-1E cells): JNK and caspase-3 were responsible for stress-induced MST1 cleavage

Compound: CC(C)C[C@@H](C=O)NC(=O)[C@H](CC(C)C)NC(=O)[C@H](CC(C)C)NC(=O)OCc1ccccc1 [MG-132, reference compound] (Cbz-Leu-Leu-Leu-aldehyde)
- disappearance of PDX1 (PDX1 [1]; PDX1 overexpressing HEK293 cells with MST1, MG-132 50 μM for 6 h): abolished

Compound: GLP1: Glucagon like-peptide 1 (Sigma), exogenously added mitogen (HAEGTFTSDVSSYLEGQAAKEFIAWLVKGR; ends and bridges not checked; UniProt P01275 98-127, looked up)
- glucose- and cytokine-induced P-MST1, MST1-cleavage and apoptosis (MST1 [6]): inhibited

Compound: insulin: recombinant human insulin
- glucose- and cytokine-induced P-MST1, MST1-cleavage and apoptosis (MST1 [6]): inhibited

— patent US20160083733A1, “NOVEL TREATMENT OF METABOLIC DISEASES” (UNIVERSITY OF BREMEN, priority 2013, published 2016)
